Test results from patent US20120177701A1, “COMPOSITIONS COMPRISING IMMUNOSTIMULATORY NUCLEIC ACIDS AND RELATED METHODS” (priority 2010, published 2012).

Columns and labels:
[1] = tested on: J774 murine macrophages; experiment: TNF-α induction in mouse macrophage cell line J774; format: cell-based
Protocol: Induction of TNF-α by macrophages is a hallmark of human TLR8 activation (Forsbach et al., 2008, J. Immunol., 180:3729-38; Ghosh et al., 2007, Int. Immunopharmacol., 7:1111-21; Gorden et al., 2005, J. Immunol., 174:1259-68). […] In the following experiment mouse macrophage cell line, J774, has been transfected by test ribonucleotides as described above for HEK-Blue™ hTLR8 cells (with the exception that 2-10×10^4 cells/well were used) and TNF-α was measured in culture supernatants at 16-20 hours after transfection.

[2] = tested on: HEK-Blue™ Null; format: cell-based, human
[3] = molecular target: T1, human TLR3 (Homo sapiens, UniProt O15455); format: cell-based
T1 construct: expressed in transfected cells; host or cells: HEK-Blue hTLR3 (HEK293-derived reporter line)
T1 sequence (O15455 24-904): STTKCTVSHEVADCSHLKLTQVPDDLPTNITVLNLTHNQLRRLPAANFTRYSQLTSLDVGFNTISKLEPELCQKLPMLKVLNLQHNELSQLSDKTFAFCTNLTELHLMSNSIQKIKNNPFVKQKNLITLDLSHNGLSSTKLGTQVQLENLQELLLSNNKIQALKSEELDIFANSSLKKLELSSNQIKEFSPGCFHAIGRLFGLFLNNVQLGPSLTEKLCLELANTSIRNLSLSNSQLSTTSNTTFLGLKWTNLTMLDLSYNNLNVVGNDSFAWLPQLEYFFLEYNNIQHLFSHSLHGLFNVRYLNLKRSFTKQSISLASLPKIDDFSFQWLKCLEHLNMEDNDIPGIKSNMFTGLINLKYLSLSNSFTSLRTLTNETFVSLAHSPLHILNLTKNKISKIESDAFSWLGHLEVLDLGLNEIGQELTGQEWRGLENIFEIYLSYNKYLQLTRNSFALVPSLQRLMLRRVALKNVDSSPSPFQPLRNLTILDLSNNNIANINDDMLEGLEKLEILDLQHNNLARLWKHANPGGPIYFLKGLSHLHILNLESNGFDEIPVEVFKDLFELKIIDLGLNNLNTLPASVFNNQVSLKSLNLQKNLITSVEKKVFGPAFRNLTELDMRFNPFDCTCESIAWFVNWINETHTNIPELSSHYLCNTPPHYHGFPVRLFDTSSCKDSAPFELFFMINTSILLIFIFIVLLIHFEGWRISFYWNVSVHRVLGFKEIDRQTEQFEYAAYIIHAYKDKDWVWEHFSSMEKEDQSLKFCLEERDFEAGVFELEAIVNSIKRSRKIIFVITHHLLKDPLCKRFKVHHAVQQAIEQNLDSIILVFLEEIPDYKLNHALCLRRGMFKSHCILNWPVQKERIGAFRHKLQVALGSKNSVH

[4] = molecular target: T2, human TLR9 (Homo sapiens, UniProt Q9NR96); format: cell-based
T2 construct: expressed in transfected cells; host or cells: HEK-Blue hTLR9 (HEK293-derived reporter line)
T2 sequence (Q9NR96 26-1032): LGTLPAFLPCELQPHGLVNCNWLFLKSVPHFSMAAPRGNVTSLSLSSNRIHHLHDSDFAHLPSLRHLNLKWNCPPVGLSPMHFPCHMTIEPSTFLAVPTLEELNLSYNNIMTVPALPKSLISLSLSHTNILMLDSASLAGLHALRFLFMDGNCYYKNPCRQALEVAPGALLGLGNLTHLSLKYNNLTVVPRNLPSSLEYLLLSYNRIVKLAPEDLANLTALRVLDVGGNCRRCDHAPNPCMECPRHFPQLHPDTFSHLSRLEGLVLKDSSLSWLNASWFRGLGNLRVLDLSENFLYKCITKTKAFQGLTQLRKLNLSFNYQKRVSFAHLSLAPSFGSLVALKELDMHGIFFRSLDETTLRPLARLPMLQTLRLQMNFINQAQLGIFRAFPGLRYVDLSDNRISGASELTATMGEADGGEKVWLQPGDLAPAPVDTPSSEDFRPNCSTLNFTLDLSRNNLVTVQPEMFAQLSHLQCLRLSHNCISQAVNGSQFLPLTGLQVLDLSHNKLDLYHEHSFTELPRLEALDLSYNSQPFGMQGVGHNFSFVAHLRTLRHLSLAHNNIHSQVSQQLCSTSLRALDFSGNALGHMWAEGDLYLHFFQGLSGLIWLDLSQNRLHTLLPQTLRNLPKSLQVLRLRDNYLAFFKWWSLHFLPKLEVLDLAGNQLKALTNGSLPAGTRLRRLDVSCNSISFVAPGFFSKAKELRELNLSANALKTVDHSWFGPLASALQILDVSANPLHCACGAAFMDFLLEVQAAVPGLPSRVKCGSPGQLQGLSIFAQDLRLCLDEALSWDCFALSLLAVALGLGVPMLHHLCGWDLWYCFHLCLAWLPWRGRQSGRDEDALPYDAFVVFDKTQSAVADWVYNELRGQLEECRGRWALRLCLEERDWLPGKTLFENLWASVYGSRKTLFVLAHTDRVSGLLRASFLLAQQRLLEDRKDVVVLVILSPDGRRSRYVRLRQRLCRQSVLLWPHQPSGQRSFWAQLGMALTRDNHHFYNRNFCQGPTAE

Substance: 5′-GAGAUGUUAUUUUGUUUUUAAUAUUUC-3′ (phosphorothioate backbone, further chemistry not given here) [SL-0001, phosphorothioated 27-ribonucleotide from the 3′-terminus of Chikungunya virus strain TSI-GSD-218, bases 12010-12036]
- TNF-α induction, described in words [1]: strongly induced TNF-α expression, to the level seen when R-0006 was used
- activation of SEAP expression [2]: No activation of SEAP expression
- activation of SEAP expression [3]: No activation of SEAP expression
- activation of SEAP expression [4]: No activation of SEAP expression
